Consider 10 compounds from ChEMBL document CHEMBL1146789, “(+/-)8-Amino-5,6,7,8-tetrahydroisoquinolines as novel antinociceptive agents” (Bioorg Med Chem Lett, 2004).

Structures are written as SMILES. Active and inactive are the calls of the source. No cut-off for these calls is given here. Bounds are passed on as bounds.

The target of series [1] is T1, Neuronal acetylcholine receptor; alpha4/beta2 (Homo sapiens, UniProt P17787+P43681). The series can be described thus: Affinity for nicotinic acetylcholine receptor alpha4-beta2. It counts as protein-complex assay.
T1 sequence (P17787 whole entry): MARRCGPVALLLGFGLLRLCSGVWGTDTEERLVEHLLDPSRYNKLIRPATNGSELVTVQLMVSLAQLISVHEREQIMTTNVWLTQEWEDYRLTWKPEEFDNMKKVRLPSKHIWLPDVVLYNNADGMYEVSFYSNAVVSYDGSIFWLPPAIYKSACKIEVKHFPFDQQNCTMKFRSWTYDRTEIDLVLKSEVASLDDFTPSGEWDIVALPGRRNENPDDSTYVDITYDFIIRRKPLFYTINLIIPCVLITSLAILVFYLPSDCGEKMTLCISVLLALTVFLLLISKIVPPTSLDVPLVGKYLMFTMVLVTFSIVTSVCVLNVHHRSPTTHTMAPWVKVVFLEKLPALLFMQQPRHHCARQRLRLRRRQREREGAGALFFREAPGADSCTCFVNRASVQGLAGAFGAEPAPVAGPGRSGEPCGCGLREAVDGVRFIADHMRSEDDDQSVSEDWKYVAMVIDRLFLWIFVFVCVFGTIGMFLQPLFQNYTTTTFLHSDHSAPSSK
T1 sequence (P43681 whole entry): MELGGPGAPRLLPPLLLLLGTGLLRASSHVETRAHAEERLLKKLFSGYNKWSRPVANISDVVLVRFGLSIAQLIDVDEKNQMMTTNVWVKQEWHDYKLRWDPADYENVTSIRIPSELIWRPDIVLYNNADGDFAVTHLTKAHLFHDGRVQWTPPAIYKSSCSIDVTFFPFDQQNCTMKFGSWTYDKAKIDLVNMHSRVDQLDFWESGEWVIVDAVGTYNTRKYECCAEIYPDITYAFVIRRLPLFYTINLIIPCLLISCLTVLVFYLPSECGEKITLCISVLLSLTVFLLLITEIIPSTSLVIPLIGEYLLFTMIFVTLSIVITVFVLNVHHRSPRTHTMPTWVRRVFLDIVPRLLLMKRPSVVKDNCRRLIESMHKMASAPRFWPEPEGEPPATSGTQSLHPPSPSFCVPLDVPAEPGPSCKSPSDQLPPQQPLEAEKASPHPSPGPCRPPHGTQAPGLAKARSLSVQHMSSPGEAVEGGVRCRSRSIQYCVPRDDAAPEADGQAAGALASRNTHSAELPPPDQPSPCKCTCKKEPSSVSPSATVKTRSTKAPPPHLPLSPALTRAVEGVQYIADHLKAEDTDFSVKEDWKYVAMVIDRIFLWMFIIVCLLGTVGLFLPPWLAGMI
The target of series [2] is T1, Neuronal acetylcholine receptor; alpha4/beta2. The series can be described thus: Affinity for nicotinic acetylcholine receptor alpha4-beta2; NA = Not active. It counts as protein-complex assay.
For series [3], the species on record is Mus musculus. The series can be described thus: Antinociceptive action was determined; P- Possess activity. It counts as functional, organism-based.
Series [4] relates to Mus musculus. The series can be described thus: Antinociceptive action was determined by hotplate assay in mouse administered subcutaneously at a dose of 10 mg/kg. The series is classed as functional. To be noted: route subcutaneous.
For series [5], the system named is Mus musculus. The series can be described thus: Antinociceptive action was determined by tail-flick assay in mouse administered intrathecally. The series is classed as functional. The conditions noted are these: central. For orientation: In hot-plate and tail-flick tests a longer latency is read as antinociception.
In series [6] the test system is Mus musculus. The series can be described thus: Antinociceptive action was determined by tail-flick assay in mouse administered subcutaneously at a dose of 10 mg/kg. It counts as functional. To be noted: route subcutaneous.
Series [7] deals with Mus musculus. The series can be described thus: Antinociceptive action was determined by tail-flick assay in mouse administered intrathecally at a dose of 20-25 ug. The series is classed as functional.
Series [8] has as its system Mus musculus. The series can be described thus: Antinociceptive action was determined by hotplate assay in mouse administered subcutaneously. To be noted: sc. The series is classed as functional.
Series [9] has as its system Mus musculus. The series can be described thus: Antinociceptive action was determined by tail-flick assay in mouse administered subcutaneously. The series is classed as functional. To be noted: sc.
The next series concerns the target Histamine H1 receptor (Homo sapiens, UniProt P35367). The series can be described thus: Affinity towards histamine H1 receptor.
The target in series [10] is 5-hydroxytryptamine receptor 2C (Homo sapiens, UniProt P28335). The series can be described thus: Affinity towards human 5-hydroxytryptamine 2C serotonin receptor.
Series [11] addresses Kappa-type opioid receptor (Homo sapiens, UniProt P41145). The series can be described thus: Affinity towards kappa opioid receptor.
The next series deals with Mu-type opioid receptor (Homo sapiens, UniProt P35372). The series can be described thus: Affinity towards opioid receptor mu 1.
The target of series [12] is Muscarinic acetylcholine receptor M1 (Homo sapiens, UniProt P11229). The series can be described thus: Affinity towards human muscarinic acetylcholine receptor M1.
Series [13] concerns the target Delta-type opioid receptor (Homo sapiens, UniProt P41143). The series can be described thus: Affinity towards opioid receptor delta 1.
A further series addresses D(3) dopamine receptor (Homo sapiens, UniProt P35462). The series can be described thus: Affinity towards human dopamine receptor D3.
The target in a further series is Histamine H2 receptor (Homo sapiens, UniProt P25021). The series can be described thus: Affinity towards histamine H2 receptor.
Series [14] has as its target Muscarinic acetylcholine receptor M4 (Homo sapiens, UniProt P08173). The series can be described thus: Affinity towards human Muscarinic acetylcholine receptor M4.
In series [15] the target is 5-hydroxytryptamine receptor 2B (Homo sapiens, UniProt P41595). The series can be described thus: Affinity towards human 5-hydroxytryptamine 2B serotonin receptor.
The target in series [16] is Muscarinic acetylcholine receptor M3 (Homo sapiens, UniProt P20309). The series can be described thus: Affinity towards human muscarinic acetylcholine receptor M3.
In series [17] the target is 5-hydroxytryptamine receptor 5A (Homo sapiens, UniProt P47898). The series can be described thus: Affinity towards human 5-hydroxytryptamine 5A serotonin receptor.
Series [18] addresses Adrenergic receptor alpha-2 (Homo sapiens, UniProt P08913+P18825+P18089). The series can be described thus: Affinity towards alpha-2 adrenergic receptor. The series is classed as protein assay.
A short description of series [19]: Binding towards calcium channel(Ca++); NA- Not active.
In series [20] the target is Serotonin 3 (5-HT3) receptor. The series can be described thus: Affinity towards human 5-hydroxytryptamine 3 serotonin receptor. It counts as protein-complex assay.
The target of series [21] is 5-hydroxytryptamine receptor 7 (Homo sapiens, UniProt P34969). The series can be described thus: Affinity towards human 5-hydroxytryptamine 7 serotonin receptor.
The target of series [22] is Muscarinic acetylcholine receptor M2 (Homo sapiens, UniProt P08172). The series can be described thus: Affinity towards human muscarinic acetylcholine receptor M2.
The target in another series is D(1B) dopamine receptor (Homo sapiens, UniProt P21918). The series can be described thus: Affinity towards human dopamine receptor D5.
Chain of D(1B) dopamine receptor (P21918 whole entry): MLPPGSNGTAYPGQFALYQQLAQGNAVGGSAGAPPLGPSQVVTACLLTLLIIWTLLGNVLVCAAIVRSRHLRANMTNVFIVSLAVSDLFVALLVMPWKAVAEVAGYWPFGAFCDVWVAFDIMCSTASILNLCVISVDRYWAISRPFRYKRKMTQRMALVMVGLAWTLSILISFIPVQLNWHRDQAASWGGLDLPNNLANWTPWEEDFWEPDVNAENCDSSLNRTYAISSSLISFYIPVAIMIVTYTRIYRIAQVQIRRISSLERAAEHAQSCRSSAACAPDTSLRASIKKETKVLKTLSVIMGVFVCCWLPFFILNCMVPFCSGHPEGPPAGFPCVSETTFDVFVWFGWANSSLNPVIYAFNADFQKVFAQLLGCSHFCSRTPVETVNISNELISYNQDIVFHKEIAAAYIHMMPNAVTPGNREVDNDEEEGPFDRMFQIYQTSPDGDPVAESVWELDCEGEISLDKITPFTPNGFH
Series [23] deals with Adrenergic receptor alpha-1 (Homo sapiens, UniProt P35348+P25100+P35368). The series can be described thus: Affinity towards alpha-1 adrenergic receptor. It counts as protein assay.
Series [24] concerns the target GABA-A receptor; anion channel. The series can be described thus: Binding affinity for GABA-A central benzodiazepine receptor. It counts as protein-complex assay.
The next series addresses Adenosine A2 receptor (Homo sapiens, UniProt P29275+P29274). The series can be described thus: Affinity towards human adenosine A2 receptor. It counts as protein assay.
A further series has as its target Adenosine receptor A1 (Homo sapiens, UniProt P30542). The series can be described thus: Affinity towards human adenosine A1 receptor.
Series [25] has as its target 5-hydroxytryptamine receptor 1B (Homo sapiens, UniProt P28222). The series can be described thus: Affinity towards human 5-hydroxytryptamine 1B serotonin receptor.
The target in another series is Translocator protein (Homo sapiens, UniProt P30536). The series can be described thus: Binding affinity for peripheral benzodiazepine receptor.
Chain of Translocator protein (P30536 whole entry): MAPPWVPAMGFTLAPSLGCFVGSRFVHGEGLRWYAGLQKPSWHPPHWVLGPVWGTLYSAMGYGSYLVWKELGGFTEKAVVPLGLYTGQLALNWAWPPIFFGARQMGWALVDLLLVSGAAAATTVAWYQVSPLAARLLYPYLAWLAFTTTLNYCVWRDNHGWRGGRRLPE
For series [26], the target named is Beta-2 adrenergic receptor (Homo sapiens, UniProt P07550). The series can be described thus: Affinity towards human beta-2 adrenergic receptor.
Series [27] has as its target 5-hydroxytryptamine receptor 6 (Homo sapiens, UniProt P50406). The series can be described thus: Affinity towards human 5-hydroxytryptamine 6 serotonin receptor.
The next series concerns the target D(4) dopamine receptor (Homo sapiens, UniProt P21917). The series can be described thus: Affinity towards human dopamine receptor D4.
In series [28] the target is Sodium-dependent dopamine transporter (Homo sapiens) (UniProt Q01959). The series can be described thus: Binding towards dopamine transporter; NA- Not active.
Chain of Sodium-dependent dopamine transporter (Homo sapiens) (Q01959 whole entry): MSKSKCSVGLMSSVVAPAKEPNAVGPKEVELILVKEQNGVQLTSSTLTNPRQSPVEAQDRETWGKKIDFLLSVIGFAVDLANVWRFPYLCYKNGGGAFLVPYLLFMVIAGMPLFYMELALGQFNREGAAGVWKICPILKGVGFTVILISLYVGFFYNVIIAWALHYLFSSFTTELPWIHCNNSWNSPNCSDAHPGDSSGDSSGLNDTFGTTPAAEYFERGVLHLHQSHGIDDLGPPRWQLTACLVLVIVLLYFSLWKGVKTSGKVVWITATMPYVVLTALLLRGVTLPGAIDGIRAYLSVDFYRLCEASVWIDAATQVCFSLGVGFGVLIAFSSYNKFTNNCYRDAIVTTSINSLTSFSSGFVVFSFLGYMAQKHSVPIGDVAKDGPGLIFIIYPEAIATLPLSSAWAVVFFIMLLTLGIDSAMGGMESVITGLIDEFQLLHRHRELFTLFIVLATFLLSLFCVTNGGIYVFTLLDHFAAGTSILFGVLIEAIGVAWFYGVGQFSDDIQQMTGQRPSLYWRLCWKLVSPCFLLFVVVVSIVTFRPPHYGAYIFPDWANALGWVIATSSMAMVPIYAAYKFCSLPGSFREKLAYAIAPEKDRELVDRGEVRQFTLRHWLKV
Another series addresses Adenosine receptor A3 (Homo sapiens, UniProt P0DMS8). The series can be described thus: Affinity towards human adenosine A3 receptor.
A further series concerns the target D(1A) dopamine receptor (Homo sapiens, UniProt P21728). The series can be described thus: Affinity towards human Dopamine receptor D1.
In series [29] the target is 5-hydroxytryptamine receptor 1A (Homo sapiens, UniProt P08908). The series can be described thus: Affinity towards human 5-hydroxytryptamine 1A serotonin receptor.
Series [30] deals with Sodium-dependent noradrenaline transporter (Homo sapiens) (UniProt P23975). The series can be described thus: Binding towards norepinephrine transporter; NA= Not active.
Chain of Sodium-dependent noradrenaline transporter (Homo sapiens) (P23975 whole entry): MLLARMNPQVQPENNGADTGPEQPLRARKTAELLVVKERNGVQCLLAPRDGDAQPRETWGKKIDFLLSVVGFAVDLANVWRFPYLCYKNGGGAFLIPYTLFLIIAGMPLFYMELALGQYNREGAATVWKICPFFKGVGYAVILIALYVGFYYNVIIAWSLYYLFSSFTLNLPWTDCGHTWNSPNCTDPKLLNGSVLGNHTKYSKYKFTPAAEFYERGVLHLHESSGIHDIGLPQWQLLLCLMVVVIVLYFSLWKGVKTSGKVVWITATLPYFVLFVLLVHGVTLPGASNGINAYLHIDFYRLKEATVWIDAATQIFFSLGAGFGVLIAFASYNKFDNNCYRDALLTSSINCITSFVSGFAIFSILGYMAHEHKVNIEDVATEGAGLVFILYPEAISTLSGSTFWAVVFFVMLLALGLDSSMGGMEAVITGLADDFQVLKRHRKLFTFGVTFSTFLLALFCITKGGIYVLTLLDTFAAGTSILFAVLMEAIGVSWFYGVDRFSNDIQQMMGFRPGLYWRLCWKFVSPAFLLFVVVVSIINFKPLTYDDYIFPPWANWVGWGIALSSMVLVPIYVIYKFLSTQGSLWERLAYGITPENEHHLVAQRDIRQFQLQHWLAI
The target in another series is D(2) dopamine receptor (Homo sapiens, UniProt P14416). The series can be described thus: Affinity towards human dopamine receptor D2.
In series [31] the target is A-type voltage-gated potassium channel KCND3 (Homo sapiens, UniProt Q9UK17). The series can be described thus: Binding towards potassium channel(K+); NA = Not active.
Chain of A-type voltage-gated potassium channel KCND3 (Q9UK17 whole entry): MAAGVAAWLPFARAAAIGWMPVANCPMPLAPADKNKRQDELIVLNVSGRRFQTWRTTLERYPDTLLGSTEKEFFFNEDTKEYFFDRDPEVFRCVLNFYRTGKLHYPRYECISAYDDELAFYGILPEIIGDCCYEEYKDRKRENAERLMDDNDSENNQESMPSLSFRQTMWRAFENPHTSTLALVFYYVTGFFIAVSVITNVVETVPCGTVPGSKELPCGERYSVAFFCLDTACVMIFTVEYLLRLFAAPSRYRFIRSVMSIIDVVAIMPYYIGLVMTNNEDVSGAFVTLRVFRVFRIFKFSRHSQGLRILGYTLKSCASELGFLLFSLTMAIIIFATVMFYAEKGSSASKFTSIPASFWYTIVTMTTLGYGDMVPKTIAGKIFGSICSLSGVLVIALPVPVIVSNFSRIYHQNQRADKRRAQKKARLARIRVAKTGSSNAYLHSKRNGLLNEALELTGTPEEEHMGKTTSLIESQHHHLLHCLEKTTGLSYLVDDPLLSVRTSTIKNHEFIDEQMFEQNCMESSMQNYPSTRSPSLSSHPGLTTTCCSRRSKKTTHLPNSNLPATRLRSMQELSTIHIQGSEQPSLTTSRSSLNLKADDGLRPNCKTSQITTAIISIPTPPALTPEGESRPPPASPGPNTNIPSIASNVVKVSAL
Series [32] deals with Muscarinic acetylcholine receptor M5 (Homo sapiens, UniProt P08912). The series can be described thus: Affinity towards human Muscarinic acetylcholine receptor M5.
Series [33] is described as follows: Binding towards sodium channel(Na+); NA = Not active.
The nature of series [34]: Binding towards chloride channel(Cl-); NA = Not active.

Chain of Adenosine receptor A1 (P30542 whole entry): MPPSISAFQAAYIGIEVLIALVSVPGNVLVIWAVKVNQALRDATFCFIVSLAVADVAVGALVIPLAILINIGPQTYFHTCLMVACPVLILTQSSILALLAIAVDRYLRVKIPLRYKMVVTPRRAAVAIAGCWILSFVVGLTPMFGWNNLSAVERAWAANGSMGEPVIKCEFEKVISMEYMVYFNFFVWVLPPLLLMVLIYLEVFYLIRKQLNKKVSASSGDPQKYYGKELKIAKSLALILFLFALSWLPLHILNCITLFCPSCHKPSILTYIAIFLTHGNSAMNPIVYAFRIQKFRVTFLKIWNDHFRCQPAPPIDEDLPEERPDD
Chain of 5-hydroxytryptamine receptor 6 (P50406 whole entry): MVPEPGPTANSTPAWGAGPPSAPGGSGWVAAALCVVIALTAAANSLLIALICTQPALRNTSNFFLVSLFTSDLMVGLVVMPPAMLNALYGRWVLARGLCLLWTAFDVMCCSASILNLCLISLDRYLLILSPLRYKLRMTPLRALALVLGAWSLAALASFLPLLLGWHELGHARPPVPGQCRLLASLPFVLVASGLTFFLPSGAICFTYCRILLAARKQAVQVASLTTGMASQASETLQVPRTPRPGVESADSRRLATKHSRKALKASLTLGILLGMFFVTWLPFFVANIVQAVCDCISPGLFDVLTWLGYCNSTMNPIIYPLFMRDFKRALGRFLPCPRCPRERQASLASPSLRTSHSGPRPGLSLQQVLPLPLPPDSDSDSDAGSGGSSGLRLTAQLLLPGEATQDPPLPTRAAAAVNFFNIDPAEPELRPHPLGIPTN
Chain of D(1A) dopamine receptor (P21728 whole entry): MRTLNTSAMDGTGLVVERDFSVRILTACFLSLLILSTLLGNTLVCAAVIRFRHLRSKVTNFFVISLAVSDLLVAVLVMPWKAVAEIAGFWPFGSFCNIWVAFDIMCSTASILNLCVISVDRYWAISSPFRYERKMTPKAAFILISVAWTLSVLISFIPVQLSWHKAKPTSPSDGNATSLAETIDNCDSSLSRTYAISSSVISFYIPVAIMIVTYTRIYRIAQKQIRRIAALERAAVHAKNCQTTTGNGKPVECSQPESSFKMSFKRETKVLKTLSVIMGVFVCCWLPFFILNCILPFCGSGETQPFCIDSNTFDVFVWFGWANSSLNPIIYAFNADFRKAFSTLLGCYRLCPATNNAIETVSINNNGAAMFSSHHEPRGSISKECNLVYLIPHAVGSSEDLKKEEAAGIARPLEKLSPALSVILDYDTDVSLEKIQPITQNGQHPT

The term Ki denotes the equilibrium dissociation constant of an inhibitor or competing ligand from its target. Low values mean tighter binding, high ones weaker binding. Turning to `CCCN(C)C1CCCc2ccncc21` (stereo not given), the Ki in series [1] is above 10 µM.
As to `CN1CCC2CCc3ccncc3C21` (stereo not given), the Ki result in series [2] is on record as “Not Active”. In addition, in the series filed under Mus musculus [3], the result was Active.
In turn, `CNC1CCCc2ccncc21` (stereo not given) displayed an inhibition constant (Ki) in series [1] above 10 µM. The MPE came out at 2% with Mus musculus [4] and 0% in the series with Mus musculus [6]. The ED50 in the series with Mus musculus [5] is 13 µg/mouse.
As to `CN(C)C1CCCc2ccncc21` (stereo not given), the values for the MPE with Mus musculus [7] and with Mus musculus [6] were 8% and 2%, respectively. The same compound registered a Ki in series [1] of 0.33 µM. Besides, the ED50 in the series with Mus musculus [8] is 3.9 mg/kg.
In the case of `CN1CCC[C@H]1c1cccnc1` [NICOTINE], the ED50 in the series on Mus musculus [9] worked out at 1.5 mg/kg; in the series on Mus musculus [8], 0.5 mg/kg; with Mus musculus [5], 12 µg/mouse.
On to `CCCNC1CCCc2ccncc21` (stereo not given), for which, in series [1], the Ki was above 10 µM.
For `CCN(C)C1CCCc2ccncc21.O=C(O)/C=C\C(=O)O.O=C(O)/C=C\C(=O)O` (stereo not given), the Ki (on Histamine H1 receptor; in [10]; in [11]; at Mu-type opioid receptor; in series [12]; in [13]) was above 10 µM in each case. Besides, the inhibition constant Ki (at D(3) dopamine receptor; at Histamine H2 receptor; in [14]; in series [15]; in series [16]; in series [17]) was above 10 µM throughout. For the same compound, the inhibition constant Ki is above 10 µM in [18]; above 10 µM in [20]; 0.93 µM in series [1]; above 10 µM in series [21]; above 10 µM in series [22]; above 10 µM at D(1B) dopamine receptor. Also, the Ki (in series [23]; in series [24]; on Adenosine A2 receptor; on Adenosine receptor A1; in [25]; at Translocator protein) was above 10 µM in each case. For the same compound, the inhibition constant Ki (in [26]; in [27]; on D(4) dopamine receptor; at Adenosine receptor A3; at D(1A) dopamine receptor; in [29]) was above 10 µM each time. The inhibitory constant (Ki) (on D(2) dopamine receptor; in series [32]) was above 10 µM each time. The outcome in [19], in series [28], in series [30], in [33] and in series [34] was inactive. Also, the ED50 in the series on Mus musculus [9] came to 0.6 mg/kg; with Mus musculus [8] it was 0.2 mg/kg; in the series with Mus musculus [5] it was 12 µg/mouse. Also, in series [31], the Activity result is given as “Not Active”.
As to `c1cc2c(cn1)C(N1CCCC1)CCC2` (stereo not given), the MPE in the series with Mus musculus [7] is 6%; with Mus musculus [4] it was 11%; in the series with Mus musculus [6], 2%. The Ki in [1] is above 10 µM.
For the compound `COc1cc2c(cn1)C1NCCC1CC2` (stereo not given), the Ki entry in [2] was “Not Active”. For the same compound, in the series listed under Mus musculus [3], the outcome was Active.
`NC1CCCc2ccncc21` (stereo not given) returned a Ki in [1] above 10 µM. Moreover, the MPE with Mus musculus [4] stood at 10%; with Mus musculus [6] it was 1%.
